Assays:
[1] = biological target: human activated kallikrein enzyme (Homo sapiens, UniProt P03952); assay: Inhibition of human activated plasma kallikrein, fluorogenic peptide substrate (PFR-AMC), 500 pM enzyme format; type: biochemical; settings: 500 pM activated kallikrein, 30 min preincubation, 10 min reaction, room temperature, read-out: Primary Dose Response Assay: Average EC50
In short: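 Enzyme at 500 pM with […] PFR-AMC in 20 mM Tris pH 7.5, 1 mM EDTA, 150 mM NaCl, 0.1% PEG-400, 0.1% Triton X-100. Inhibitor preincubated 30 min, then 10 min reaction at room temperature; AMC fluorescence read at 380 nm excitation/460 nm emission.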

plasma kallikrein = biological target: T1, plasma kallikrein (Homo sapiens, UniProt P03952); assay: Neat human plasma assay (fluorogenic peptide), contact pathway-activated plasma; type: biochemical; settings: citrated human plasma, 10 nM human FXIIa activation, 100 μM PFR-AMC, room temperature; read-out: Human Plasma Assay: IC90
T1 construct: from tissue; host or cells: sodium citrate collected human plasma
Experimental: To analyze inhibition of plasma kallikrein in an ex vivo setting, the potency of compounds was measure in contact pathway-activated plasma assays. In a fluorogenic peptide substrate assay, test compounds dissolved in DMSO were added to sodium citrate collected human or rat plasma in a 96-well microplate. Alternatively, citrated plasma was collected from rats administered the compounds orally or by IV. 10 nM of human FXIIa (Enzyme Research Laboratories) diluted in PKa buffer (20 mM Tris-HCl, pH 7.5, 150 mM NaCl, 1 mM EDTA, 0.100 PEG-8000, and 0.1% Triton X-100) was added to the plasma, followed by the 100 μM of the profluorescent, synthetic plasma kallikrein substrate PFR-AMC (also diluted in PKa buffer). Final plasma concentration in the reaction was […]. Fluorescence was immediately monitored by excitation/emission wavelengths of 360 nm/480 nm respectively over a period of 5 minutes in a microplate reader. The resulting linear increase in fluorescence emission (reflecting PKa proteolysis of PFR-AMC substrate) was fit to extract a proteolytic rate (fluorescent units over time), and this rate was subsequently plotted against compound inhibitor concentration. Resulting plots were fit to a standard 4-parameter IC50/C90 equation to determine min/max values, IC50/90, and slope. All experimental steps were performed at room temperature.

human activated kallikrein enzyme, sequence (P03952 391-638 limits assumed): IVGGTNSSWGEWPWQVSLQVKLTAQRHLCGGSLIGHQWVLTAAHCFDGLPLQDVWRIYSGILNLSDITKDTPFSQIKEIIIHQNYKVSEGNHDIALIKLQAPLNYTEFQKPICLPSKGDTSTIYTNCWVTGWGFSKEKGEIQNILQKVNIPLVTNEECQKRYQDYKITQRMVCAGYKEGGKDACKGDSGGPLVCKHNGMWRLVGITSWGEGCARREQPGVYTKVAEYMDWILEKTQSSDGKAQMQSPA
human activated kallikrein enzyme, sequence (P03952 20-390 partner limits assumed): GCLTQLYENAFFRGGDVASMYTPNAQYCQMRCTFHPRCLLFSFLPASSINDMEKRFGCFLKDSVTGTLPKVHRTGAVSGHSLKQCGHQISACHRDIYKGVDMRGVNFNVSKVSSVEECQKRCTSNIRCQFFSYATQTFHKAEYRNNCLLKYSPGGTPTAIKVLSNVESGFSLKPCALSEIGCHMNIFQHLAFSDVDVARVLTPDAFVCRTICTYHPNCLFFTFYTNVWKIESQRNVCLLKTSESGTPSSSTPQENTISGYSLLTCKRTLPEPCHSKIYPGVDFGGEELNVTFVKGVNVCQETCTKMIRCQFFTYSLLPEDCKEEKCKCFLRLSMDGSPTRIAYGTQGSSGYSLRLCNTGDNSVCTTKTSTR
T1 sequence (P03952 391-638 limits assumed): as the sequence (P03952 391-638 limits assumed) above
T1 sequence (P03952 20-390 partner limits assumed): as the sequence (P03952 20-390 partner limits assumed) above

Compound	EC50 [1] [nM]	IC90 (plasma kallikrein) [nM]
Cc1ccnc([C@H]2C[C@@H]2C(=O)Nc2nncc(N[C@H](C)c3cc4cc(C5CC5)cc(N5CC(=O)N(C)C5=O)n4n3)n2)n1 (single isomer, unassigned) [Example 102]	< 2.5	< 500
O=C(Nc1cc(NCc2cc3cc(C4CC4)cnc3s2)ccn1)[C@H]1C[C@@H]1c1cccc(Cl)c1 [Example 23, (1S,2S)-2-(3-chlorophenyl)-N-(4-(((5-cyclopropylthieno[2,3-b]pyridin-2-yl)methyl)amino)pyridin-2-yl)cyclopropane-1-carboxamide]	< 2.5	5000 to 65000
O=C(Nc1cc(NCc2nc3ccc(C4CC4)cn3n2)ccn1)[C@H]1C[C@@H]1c1cccc(Cl)c1 [Example 25, (1S,2S)-2-(3-chlorophenyl)-N-(4-(((6-cyclopropyl-[1,2,4]triazolo[1,5-a]pyridin-2-yl)methyl)amino)pyridin-2-yl)cyclopropane-1-carboxamide]	< 2.5	5000 to 65000
O=C(Nc1cc(NCc2nc3ccc(C4CC4)nn3n2)ccn1)[C@H]1C[C@@H]1c1cccc(Cl)c1 [Example 29, (1S,2S)-2-(3-chlorophenyl)-N-(4-(((6-cyclopropyl-[1,2,4]triazolo[1,5-b]pyridazin-2-yl)methyl)amino)pyridin-2-yl)cyclopropane-1-carboxamide]	2.5 to 25	5000 to 65000
O=C(Nc1cc(NCc2nc3ncc(C4CC4)cn3n2)ccn1)[C@H]1C[C@@H]1c1cccc(Cl)c1 [Example 31, (1S,2S)-2-(3-chlorophenyl)-N-(4-(((6-cyclopropyl-[1,2,4]triazolo[1,5-a]pyrimidin-2-yl)methyl)amino)pyridin-2-yl)cyclopropane-1-carboxamide]	< 2.5	500 to 5000
O=C(Nc1nccc2nn(Cc3cn4nc(C5CC5)ccc4n3)cc12)[C@H]1C[C@@H]1c1cccc(Cl)c1 [Example 35, (1S,2S)-2-(3-chlorophenyl)-N-(2-((6-cyclopropylimidazo[1,2-b]pyridazin-2-yl)methyl)-2H-pyrazolo[4,3-c]pyridin-4-yl)cyclopropane-1-carboxamide]	< 2.5	500 to 5000
CN1CCN(c2cc(C3CC3)nn3cc(CNc4cc(NC(=O)[C@H]5C[C@@H]5c5cccc(Cl)c5)ncn4)nc23)CC1 [Example 39, (1S,2S)-2-(3-chlorophenyl)-N-(6-(((6-cyclopropyl-8-(4-methylpiperazin-1-yl)imidazo[1,2-b]pyridazin-2-yl)methyl)amino)pyrimidin-4-yl)cyclopropane-1-carboxamide]	< 2.5	5000 to 65000
CN1CCN(c2cc(C3CC3)nn3cc(CNc4ccnc(NC(=O)[C@H]5C[C@@H]5c5cccc(Cl)c5)c4)nc23)CC1 [Example 40, (1S,2S)-2-(3-chlorophenyl)-N-(4-(((6-cyclopropyl-8-(4-methylpiperazin-1-yl)imidazo[1,2-b]pyridazin-2-yl)methyl)amino)pyridin-2-yl)cyclopropane-1-carboxamide]	< 2.5	500 to 5000
CN1CCN(c2cc(C3CC3)cn3nc(CNc4ccnc(NC(=O)[C@H]5C[C@@H]5c5cccc(Cl)c5)c4)nc23)CC1 [Example 45, (1S,2S)-2-(3-chlorophenyl)-N-(4-(((6-cyclopropyl-8-(4-methylpiperazin-1-yl)-[1,2,4]triazolo[1,5-a]pyridin-2-yl)methyl)amino)pyridin-2-yl)cyclopropane-1-carboxamide]	< 2.5	5000 to 65000
O=C(Nc1cc(NCc2cn3nc(C4CC4)ccc3n2)ccn1)[C@H]1C[C@@H]1c1cccc(Cl)c1 [Example 46, (1S,2S)-2-(3-chlorophenyl)-N-(4-(((6-cyclopropylimidazo[1,2-b]pyridazin-2-yl)methyl)amino)pyridin-2-yl)cyclopropane-1-carboxamide]	< 2.5	5000 to 65000
O=C(Nc1cc(NCc2cc3cc(C4CC4)cc(N4CCOC4=O)n3n2)ncn1)[C@H]1C[C@@H]1c1cccc(Cl)c1 [Example 49, (1S,2S)-2-(3-chlorophenyl)-N-(6-(((5-cyclopropyl-7-(2-oxooxazolidin-3-yl)pyrazolo[1,5-a]pyridin-2-yl)methyl)amino)pyrimidin-4-yl)cyclopropane-1-carboxamide]	< 2.5	500 to 5000
O=C(Nc1cc(NCc2cc3cc(C4CC4)cc(N4CCCC4=O)n3n2)ncn1)[C@H]1C[C@@H]1c1cccc(Cl)c1 [Example 52, (1S,2S)-2-(3-chlorophenyl)-N-(6-(((5-cyclopropyl-7-(2-oxopyrrolidin-1-yl)pyrazolo[1,5-a]pyridin-2-yl)methyl)amino)pyrimidin-4-yl)cyclopropane-1-carboxamide]	2.5 to 25	500 to 5000
CN1CCN(c2cc(C3CC3)cc3cc(CNc4cc(NC(=O)[C@H]5C[C@@H]5c5cccc(Cl)c5)ncn4)nn23)CC1 [Example 53, (1S,2S)-2-(3-chlorophenyl)-N-(6-(((5-cyclopropyl-7-(4-methylpiperazin-1-yl)pyrazolo[1,5-a]pyridin-2-yl)methyl)amino)pyrimidin-4-yl)cyclopropane-1-carboxamide]	< 2.5	500 to 5000
CN1CCN(c2cc(C3CC3)cc3cc(CNc4ccnc(NC(=O)[C@H]5C[C@@H]5c5cccc(Cl)c5)c4)nn23)CC1 [Example 54, (1S,2S)-2-(3-chlorophenyl)-N-(4-(((5-cyclopropyl-7-(4-methylpiperazin-1-yl)pyrazolo[1,5-a]pyridin-2-yl)methyl)amino)pyridin-2-yl)cyclopropane-1-carboxamide]	< 2.5	500 to 5000
O=C(Nc1cc(N2C[C@@H](O)C[C@@H]2c2cn3nc(C4CC4)ccc3n2)ncn1)[C@H]1C[C@@H]1c1cccc(Cl)c1 [Example 60, (1S,2S)-2-(3-chlorophenyl)-N-(6-((2R,4S)-2-(6-cyclopropylimidazo[1,2-b]pyridazin-2-yl)-4-hydroxypyrrolidin-1-yl)pyrimidin-4-yl)cyclopropane-1-carboxamide]	2.5 to 25	500 to 5000
O=C(Nc1cc(N2C[C@@H](O)C[C@@H]2c2cn3nc(C4CC4)ccc3n2)ncn1)[C@H]1C[C@@H]1c1cc(Cl)ccn1 [Example 61, (1S,2S)-2-(4-chloropyridin-2-yl)-N-(6-((2R,4S)-2-(6-cyclopropylimidazo[1,2-b]pyridazin-2-yl)-4-hydroxypyrrolidin-1-yl)pyrimidin-4-yl)cyclopropane-1-carboxamide]	< 2.5	500 to 5000
CN1C(=O)CN(c2cc(C3CC3)nn3cc(CNc4cc(NC(=O)[C@H]5C[C@@H]5c5cc(Cl)ccn5)ncn4)nc23)C1=O [Example 63, (1S,2S)-2-(4-chloropyridin-2-yl)-N-(6-(((6-cyclopropyl-8-(3-methyl-2,4-dioxoimidazolidin-1-yl)imidazo[1,2-b]pyridazin-2-yl)methyl)amino)pyrimidin-4-yl)cyclopropane-1-carboxamide]	< 2.5	500 to 5000
O=C(Nc1cc(NCc2cn3cc(C4CC4)cnc3n2)ncn1)[C@H]1C[C@@H]1c1cc(Cl)ccn1 [Example 66, (1S,2S)-2-(4-chloropyridin-2-yl)-N-(6-(((6-cyclopropylimidazo[1,2-a]pyrimidin-2-yl)methyl)amino)pyrimidin-4-yl)cyclopropane-1-carboxamide]	< 2.5	500 to 5000
O=C(Nc1cc(N2C[C@@H](O)C[C@@H]2c2cn3cc(C4CC4)cnc3n2)ncn1)[C@H]1C[C@@H]1c1cc(Cl)ccn1 [Example 73, (1S,2S)-2-(4-chloropyridin-2-yl)-N-(6-((2R,4S)-2-(6-cyclopropylimidazo[1,2-a]pyrimidin-2-yl)-4-hydroxypyrrolidin-1-yl)pyrimidin-4-yl)cyclopropane-1-carboxamide]	< 2.5	< 500
Cc1ccnc([C@H]2C[C@@H]2C(=O)Nc2cc(N(C)Cc3cn4cc(C5CC5)nc(N5CC(=O)N(C)C5=O)c4n3)ncn2)n1 [Example 83, (1S,2S)—N-(6-(((6-cyclopropyl-8-(3-methyl-2,4-dioxoimidazolidin-1-yl)imidazo[1,2-a]pyrazin-2-yl)methyl)(methyl)amino)pyrimidin-4-yl)-2-(4-methylpyrimidin-2-yl)cyclopropane-1-carboxamide]	< 2.5	< 500
Cc1ccnc([C@H]2C[C@@H]2C(=O)Nc2cc(N(C)Cc3cn4cc(C5CC5)nc(N5CCCC5=O)c4n3)ncn2)n1 [Example 85, (1S,2S)—N-(6-(((6-cyclopropyl-8-(2-oxopyrrolidin-1-yl)imidazo[1,2-a]pyrazin-2-yl)methyl)(methyl)amino)pyrimidin-4-yl)-2-(4-methylpyrimidin-2-yl)cyclopropane-1-carboxamide]	< 2.5	< 500

Source: patent publication US20240226106A1, “INHIBITORS OF PLASMA KALLIKREIN” (SHIRE HUMAN GENETIC THERAPIES, INC., priority 2021, published 2024)
